Consider 51 molecules from PubChem BioAssay AID1996.

Structures are written as SMILES. Converted amounts (≈) assume the structure as drawn.

For this data set the following is noted: buffer; pH 7.4; 200.0 µM.
`Cc1ccc(S(=O)(=O)N(C)C)cc1NC(=O)c1sccc1Cl` gave a solubility (kinetic) of 2.4 µg/mL (≈ 6.69 µM).

As to `CCOc1ccccc1/C=C(\C#N)C1=CCCC1`, the solubility (kinetic) was above 35.9 µg/mL.

In the case of `Cc1nc2oc3ccc(Cl)cc3c(=O)c2cc1C(=O)O`, the solubility (kinetic) is above 43.5 µg/mL.

Turning to `CCN(CC(=O)N1CCCC1)S(=O)(=O)c1ccc(F)cc1`, the kinetic solubility is 44.1 µg/mL (≈ 140 µM).

`Cc1nc(NCc2ccccc2)sc1C(=O)Nc1ccccc1` gave a solubility (kinetic) of 0.8 µg/mL (≈ 2.47 µM).

As to `CC1CC(C)CN(CC(O)COC2CC(C)CC(C)(C)C2)C1.Cl` (stereo unspecified), the solubility (kinetic) was 47.9 µg/mL.

For the molecule `O=C(c1cc2ccccc2cc1O)N1CCCC(C(F)(F)F)C1` (stereo unspecified), the kinetic solubility was above 48.5 µg/mL.

For `Cn1c(O)c(/C=C2\C=c3ccccc3=NC2=O)c(=O)n(C)c1=O`, the kinetic solubility is above 46.7 µg/mL.

`CCN(CC)C(=O)c1ccccc1NC(=O)c1ccccc1` came in with a kinetic solubility above 44.5 µg/mL.

As to `Cn1c(CNc2ccc(F)cc2)nc2ccccc21`, the kinetic solubility is above 38.3 µg/mL.

For the molecule `N#CC(c1nc2ccccc2nc1N1CCOCC1)S(=O)(=O)c1ccccc1` (stereo unspecified), the kinetic solubility was above 59.2 µg/mL.

As for `Cc1cc(C(=O)OCC(=O)NCc2cccs2)ccc1[N+](=O)[O-]`, the solubility (kinetic) was found to be 4.8 µg/mL (≈ 14.4 µM).

As to `CCOC(=O)CSc1nc2c(c(=O)[nH]1)C(C)(CC)Cc1ccccc1-2` (stereo unspecified), the kinetic solubility was 1.5 µg/mL (≈ 4.18 µM).

Molecule `COc1cccc(CN(C)S(=O)(=O)c2cccs2)c1` came in with a solubility (kinetic) of 25.1 µg/mL (≈ 84.4 µM).

For the molecule `CC(=O)Nc1ccc(S(=O)(=O)N2c3ccc(F)cc3CCC2C)cc1` (stereo unspecified), the solubility (kinetic) turned out to be 45.9 µg/mL (≈ 127 µM).

Consider `COc1cccc2cc(-c3nc4ccccc4o3)c(=O)oc12`, for which the solubility (kinetic) was 1.7 µg/mL (≈ 5.8 µM).

The molecule `O=C(Nc1ccc(Nc2ccccc2)cc1)c1ccc(Cl)cc1` had a solubility (kinetic) of 0.4 µg/mL (≈ 1.24 µM).

Regarding `O=C(Nc1ccc(CN2CCS(=O)(=O)CC2)cc1)c1ccc(Cl)cc1`, the kinetic solubility turned out to be 4.6 µg/mL (≈ 12.1 µM).

`CC1(NC(=O)Nc2ccccc2)CCS(=O)(=O)C1` (stereo unspecified) returned a kinetic solubility above 40.2 µg/mL.

On to `CCOc1ccccc1NC(=O)CN1CCc2ccccc2C1`, for which the kinetic solubility is 1.9 µg/mL (≈ 6.12 µM).

Take `Cn1c(Nc2ccccc2)nc2ccccc21`: the kinetic solubility came out at 25.9 µg/mL (≈ 116 µM).

`COc1ccccc1/C=C/C(=O)OCC(=O)NCc1ccc2c(c1)OCO2` registered a kinetic solubility of 6.3 µg/mL (≈ 17.1 µM).

`O=C(CN1C(=O)NC2(CCCCCC2)C1=O)c1ccc(F)cc1` returned a kinetic solubility above 47.8 µg/mL.

`O=C(c1ccc2ccccc2c1)N1CCN(c2ccccn2)CC1` displayed a kinetic solubility of 47.5 µg/mL (≈ 150 µM).

`COC(=O)C1CCN(C(=O)c2ccc(OC)c(S(=O)(=O)N3CCCc4ccccc43)c2)CC1` yielded a kinetic solubility above 70.9 µg/mL.

In turn, `O=C(COC(=O)c1cc[n+]([O-])cc1)NCc1ccccc1Cl` showed a kinetic solubility above 48.1 µg/mL.

`Cc1cc(C)cc(C(=O)Nc2cccnc2)c1` yielded a kinetic solubility above 33.9 µg/mL.

`O=C(CCCNC(=O)c1ccc(Cl)cc1)Nc1cccc(F)c1` came in with a solubility (kinetic) of 5.6 µg/mL (≈ 16.7 µM).

Turning to `NC(=O)COC(=O)c1cccc(S(=O)(=O)N2CCCCC2)c1`, the solubility (kinetic) is above 49 µg/mL.

Take `O=C(Nc1cc(Cl)ccc1O)c1cc(-c2ccco2)on1`: the kinetic solubility is 1.4 µg/mL (≈ 4.59 µM).

Consider `CC1(C)CC(=O)C(C=Nc2ccc(N)cc2)=C(O)C1`, for which the kinetic solubility was above 38.7 µg/mL.

The molecule `CCNc1nc2c(c(=O)n(C)c(=O)n2C)n1CCCc1ccccc1` had a kinetic solubility of 38.2 µg/mL (≈ 112 µM).

In turn, `C1CN(c2nc(N3CCOCC3)nc(N3CCOCC3)n2)CCO1` came in with a kinetic solubility of 20.6 µg/mL (≈ 61.2 µM).

Turning to `COc1ccc(NS(=O)(=O)c2cccc(C(=O)OCC(=O)NC3CC3)c2)cc1`, the solubility (kinetic) turned out to be 11.6 µg/mL (≈ 28.7 µM).

`C=CCn1c(CCNC(=O)c2ccco2)nc2ccccc21` had a solubility (kinetic) above 44.3 µg/mL.

As to `Cc1cc(C)c2c(CN3CCOCC3)cc(=O)oc2c1`, the kinetic solubility amounted to 37.2 µg/mL (≈ 136 µM).

For `O=C(COc1ccccc1F)N1CCCc2ccccc21`, the kinetic solubility was above 42.8 µg/mL.

Molecule `CNC(=O)COC(=O)CCC(=O)c1cccs1` displayed a solubility (kinetic) of 31.6 µg/mL (≈ 124 µM).

As for `O=C(Nc1ccccc1)OCCOc1ccc(Br)cc1`, the solubility (kinetic) was below 0.7 µg/mL.

`CCCn1cnc2scc(-c3ccc(C)c(C)c3)c2c1=O` showed a solubility (kinetic) of 1.1 µg/mL (≈ 3.69 µM).

Molecule `O=S(=O)(c1cccc2cccnc12)N1CCCCC1` displayed a kinetic solubility above 41.5 µg/mL.

Consider `COC(=O)CC1C(=O)NCCN1C(=O)c1sc2ccccc2c1Cl` (stereo unspecified), for which the solubility (kinetic) is above 55 µg/mL.

Regarding `Cc1ccc(OC(C)C(=O)Nc2ccncc2)cc1C` (stereo unspecified), the solubility (kinetic) was 34 µg/mL (≈ 126 µM).

`Cc1ccnc(NC(=O)COc2ccc(Cl)cc2)n1` came in with a kinetic solubility of 9.7 µg/mL (≈ 34.9 µM).

For `O=C(Nc1ccc(Br)cn1)C1CCN(S(=O)(=O)c2cccs2)CC1`, the kinetic solubility was below 0.3 µg/mL.

For `CCC(=O)Nc1ccc(-c2ccc(N3CCN(C)CC3)nn2)cc1`, the kinetic solubility was above 48.8 µg/mL.

`O=C(CN1C(=O)NC2(CCCCC2)C1=O)Nc1ccc(F)cc1`: the kinetic solubility is above 47.9 µg/mL.

The molecule `CC1(c2ccc3ccccc3c2)NC(=O)N(CC(N)=O)C1=O` (stereo unspecified) had a solubility (kinetic) above 44.6 µg/mL.

`Cc1ccc(CONC(=O)c2ccc(Cl)cc2)cc1` registered a solubility (kinetic) of 2 µg/mL (≈ 7.25 µM).

Turning to `COc1ccc(CCNC(=O)Cc2ccc(Cl)cc2)cc1OC`, the solubility (kinetic) was above 50.1 µg/mL.

`Cc1nc(/C(N)=N/OC(=O)Cc2ccccc2)no1`: the kinetic solubility was determined as 24.4 µg/mL (≈ 93.8 µM).
